Measurements from patent US7888042B2, “Methods for identifying insulin mimetics” (Ohio University, priority 2005, dated 2011).

Tests used:
[1] = target: T1, IR isolated from CHO-IR cells (Homo sapiens, UniProt P06213); assay: 125I-insulin saturation binding to IR in WGA-coated wells; conditions: 30 μM or 50 μM α-PGG
T1 construct: expressed in transfected cells; host or cells: CHO-IR cells (from Dr. Alan Saltiel's lab)
Method: (A) α-PGG binds to IR as measured by a SPR (28). Increasing concentrations of α-PGG was injected into the system to interact with the pure IR attached to the gold surface of the biosensor chip. The binding, represented in arbitrary response units, was automatically plotted against α-PGG concentrations to generate the binding curve. (B) Insulin binding to IR in the absence or presence of α-PGG. Increasing amounts of ^125I-labeled insulin were added to WGA-coated wells containing pre-bound IR isolated from CHO-IR cells in the absence of α-PGG or in the presence of 30 μM or 50 μM of α-PGG. After overnight incubation, removal of excessive ligands, and washing, the bound radioactive insulin was measured. (C) Insulin displacement by α-PGG. Fixed amounts of radioactive insulin (1 nM) were added to each of the WGA-coated wells pre-bound with IR. Increasing amounts of α-PGG were added to the wells to displace the ^125I-labeled insulin. […]
Insulin receptor binding studies. […] After sensograms of α-PGG-IR binding at different concentrations were recorded, the binding affinity was analyzed using BIAevaluation software. […] The bound ligand was detached (eluted) from the receptor with 2×200 μL 0.2M Glycine pH 2.8, and measured for its radioactivity using a Beckman Coulter LS 6400 Multi-Purpose Scintillation Counter. […] The receptor binding results were analyzed with the software GraphPad Prism.

PI-3 kinase = PI-3 kinase activity, radioactive TLC method; format: cell-based; conditions: CHO-IR cells
Method: (A) Glucose transport was measured by determining [^3H]-2-deoxyglucose uptake stimulated by either insulin or α-PGG in 3T3-L1 cells in the presence or absence of HNMPA-(AM)3, an inhibitor of IR tyrosine kinase activity (24); wortmannin, an inhibitor of PI 3-kinase (25), or cytochalasin B, an inhibitor of GLUT4 (26), (n=4, mean±SD). (B) Cells were induced by 20 or 40 μM α-PGG or 100 nM insulin for 15 min. Cell lysates were separated by PAGE and analyzed for phosphorylation of IR (in CHO-IR cells) or Akt (in adipocytes) using antibodies specific to the target proteins. (C) Cells were treated with α-PGG and insulin in a fashion similar to (B) and assayed for their respective PI-3 kinase activity with a radioactive TLC method (27). (D) In similar experiments, intact cells were analyzed by confocal microscopy for translocation of GLUT4 using anti-GLUT4 antibodies.
Protein phosphorylation/activation and GLUT4 translocation. To investigate signal transduction induced by α-PGG, proteins from 3T3-L1 adipocytes or CHO-IR cells (23), which were treated with α-PGG or insulin for 15 min, were isolated, separated by PAGE, blotted on nylon membranes, and analyzed by Western blotting with antibodies against either IR or Akt. […]

db/db mice = assay: Blood glucose in fasting db/db mice, oral dose; format: in vivo
Method: Either 6-8 week old male db/db mice or 8-12 week old male ob/ob mice were treated with aqueous solutions of α-PGG by either oral delivery (˜10 μL, A & B) or ip injection (˜50 μL, C, & D). (n=8-10, mean±SD, one-way ANOVA). α-PGG (●); vehicle (∘). α-PGG (20 mg/kg) was orally delivered without glucose to fasting db/db mice (A *, P<0.02; **, P<0.01; ***, P<0.001) or with glucose (0.4 g/kg body weight) to fasting ob/ob mice (B, glucose tolerance test). α-PGG (20 mg/kg) was ip injected into ob/ob mice on day 0 and day 4 (C). A single ip injection (20 mg/kg) of α-PGG was administered to ob/ob mice (D). Glucose (A, B, C) or insulin (D) was determined from sera or plasma isolated from tail vein blood. Animal studies. Genetically diabetic db/db mice or obese ob/ob mice were purchased from Jackson Lab. Male mice of 2-3 months of age were used. Unless otherwise stated, 10 mice (N=10) were used per group. α-PGG was either orally administered or intraperitoneally (ip) injected in the form of an aqueous solution at 20 mg/kg body weight with a 1-cc sterile plastic syringe. At different times after the α-PGG administration, blood or plasma was collected from the tail vein for measurement of glucose and insulin concentrations using commercial kits. Vehicle (aqueous solution) treated mice were used as controls and were statistically compared with the α-PGG treated mice. All animal studies were conducted in accord with the Ohio University guidelines for the use and care of laboratory animals.

T1 sequence (P06213 28-758 limits assumed): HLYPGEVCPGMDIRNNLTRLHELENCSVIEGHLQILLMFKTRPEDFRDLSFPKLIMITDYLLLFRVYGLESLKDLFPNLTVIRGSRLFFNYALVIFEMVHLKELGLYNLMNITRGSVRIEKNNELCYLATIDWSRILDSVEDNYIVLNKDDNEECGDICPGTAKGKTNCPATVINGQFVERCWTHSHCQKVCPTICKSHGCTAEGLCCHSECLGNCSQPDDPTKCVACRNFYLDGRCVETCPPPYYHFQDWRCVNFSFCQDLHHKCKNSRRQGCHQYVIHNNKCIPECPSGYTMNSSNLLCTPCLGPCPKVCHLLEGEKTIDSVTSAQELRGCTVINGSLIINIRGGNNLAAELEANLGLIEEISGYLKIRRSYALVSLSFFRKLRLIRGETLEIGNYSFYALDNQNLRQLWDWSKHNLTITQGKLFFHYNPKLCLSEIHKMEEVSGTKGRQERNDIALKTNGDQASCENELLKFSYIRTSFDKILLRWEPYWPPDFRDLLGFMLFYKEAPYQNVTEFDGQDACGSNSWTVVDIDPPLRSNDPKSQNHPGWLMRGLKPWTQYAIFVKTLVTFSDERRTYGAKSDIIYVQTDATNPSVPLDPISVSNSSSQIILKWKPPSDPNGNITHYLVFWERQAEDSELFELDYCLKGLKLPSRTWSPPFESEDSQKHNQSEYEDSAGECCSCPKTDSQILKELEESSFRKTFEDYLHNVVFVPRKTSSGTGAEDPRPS
T1 sequence (P06213 763-1382 partner limits assumed): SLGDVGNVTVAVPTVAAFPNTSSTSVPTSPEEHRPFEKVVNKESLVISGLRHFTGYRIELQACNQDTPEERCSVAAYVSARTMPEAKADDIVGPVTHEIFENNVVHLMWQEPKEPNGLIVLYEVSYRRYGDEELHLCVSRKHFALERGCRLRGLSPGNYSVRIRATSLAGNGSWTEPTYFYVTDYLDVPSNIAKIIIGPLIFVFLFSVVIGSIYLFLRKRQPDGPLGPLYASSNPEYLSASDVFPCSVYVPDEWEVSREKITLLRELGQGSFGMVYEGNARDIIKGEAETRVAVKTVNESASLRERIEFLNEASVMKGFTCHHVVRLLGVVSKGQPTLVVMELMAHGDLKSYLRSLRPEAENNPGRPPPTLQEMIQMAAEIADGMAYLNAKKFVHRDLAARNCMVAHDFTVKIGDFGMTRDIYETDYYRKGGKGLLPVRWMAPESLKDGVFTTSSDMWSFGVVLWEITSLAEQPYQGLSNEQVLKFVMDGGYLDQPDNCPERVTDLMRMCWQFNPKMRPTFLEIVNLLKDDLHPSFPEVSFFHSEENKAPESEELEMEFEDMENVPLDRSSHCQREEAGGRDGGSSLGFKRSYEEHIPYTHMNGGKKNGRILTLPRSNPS

maximal binding (Bmax) for insulin [1]: reduced in a dose-dependent manner | PI-3 kinase activity (PI-3 kinase): activates PI-3 kinase
SMILES: O=C(OC[C@H]1O[C@H](OC(=O)c2cc(O)c(O)c(O)c2)[C@H](OC(=O)c2cc(O)c(O)c(O)c2)[C@@H](OC(=O)c2cc(O)c(O)c(O)c2)[C@@H]1OC(=O)c1cc(O)c(O)c(O)c1)c1cc(O)c(O)c(O)c1 [α-PGG, alpha 1,2,3,4,6-penta-O-galloyl-D-Glucopyranose]
duration of blood glucose difference (db/db mice; oral 20 mg/kg): at least 5 hours | glucose level lower than control group (db/db mice; oral 20 mg/kg, 4 to 6 hours after treatment): about 20% | blood glucose levels (db/db mice; single oral dose 20 mg/kg): significantly decreased
